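Exposure lasted 48 hours, with cells grown in 96-well plates and compounds tested at five concentrations. Abbreviation: GI50, concentration required for 50% inhibition of growth. The concentration for full growth arrest is given as TGI.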
Key:
Assay in all cases: DTP human tumour cell line panel, 48 h
[1] = test system: EKVX NSCLC
[2] = test system: CAKI-1 renal
[3] = test system: U251 CNS
[4] = test system: KM12 colon
[5] = test system: MALME-3M melanoma
[6] = test system: A498 renal
[7] = test system: SNB-75 CNS
[8] = test system: ACHN renal
[9] = test system: SNB-19 CNS
[10] = test system: HOP-62 NSCLC
[11] = test system: NCI-H460 lung
[12] = test system: RPMI-8226 leukemia
[13] = test system: MCF7 breast
[14] = test system: MOLT-4 leukemia
[15] = test system: UACC-62 melanoma
[16] = test system: NCI-H23 lung
[17] = test system: LOX IMVI melanoma
[18] = test system: RXF 393 renal
[19] = test system: HT29 colon
[20] = test system: CCRF-CEM leukemia
[21] = test system: HOP-92 NSCLC
[22] = test system: OVCAR-5 ovarian
[23] = test system: IGROV1 ovarian
[24] = test system: SF-539 CNS
[25] = test system: OVCAR-3 ovarian
[26] = test system: COLO 205 colon
[27] = test system: MDA-MB-468 breast
[28] = test system: PC-3 prostate
[29] = test system: HCT-15 colon
[30] = test system: SF-268 CNS
[31] = test system: UACC-257 melanoma
[32] = test system: BT-549 breast
[33] = test system: SW-620 colon
[34] = test system: MDA-MB-435
[35] = test system: 786-0 renal
[36] = test system: HCC-2998 colon
[37] = test system: NCI/ADR-RES ovarian
[38] = test system: M14 melanoma
[39] = test system: SK-MEL-2 melanoma
[40] = test system: SR leukemia
[41] = test system: NCI-H226 lung
[42] = test system: OVCAR-4 ovarian
[43] = test system: HS 578T breast
[44] = test system: SF-295 CNS
[45] = test system: A549 NSCLC
[46] = test system: HCT-116 colon
[47] = test system: MDA-MB-231 breast
[48] = test system: SK-MEL-28 melanoma
[49] = test system: SN12C renal
[50] = test system: DU-145 prostate
[51] = test system: SK-MEL-5 melanoma
[52] = test system: K-562 leukemia
[53] = test system: T-47D breast
[54] = test system: UO-31 renal
[55] = test system: TK-10 renal
[56] = test system: NCI-H522 lung
[57] = test system: SK-OV-3 ovarian
[58] = test system: OVCAR-8 ovarian
[59] = test system: HL-60(TB) leukemia

With `O=C(COc1ccc(NC(=O)Nc2ccc(Cl)c(Cl)c2)cc1)N=Nc1c(O)[nH]c2ccccc12` the GI50 [1] was 6.11 µM, the TGI [1] was 28 µM and the GI50 [2] was 4.69 µM. It also gave a TGI [2] of 17.1 µM, a GI50 [3] of 1.77 µM and a TGI [3] of 3.32 µM. For the same molecule, the GI50 [4] was 2.87 µM, the TGI [4] was 11.2 µM and the GI50 [5] was 1.83 µM. The TGI [5] was 3.76 µM, the GI50 [6] was 10.5 µM and the TGI [6] was 23.2 µM. For the same molecule, the GI50 [7] was 1.65 µM, the TGI [7] was 5.09 µM and the GI50 [8] was 7.78 µM. For the same molecule, the TGI [8] was 36.2 µM, the GI50 [9] was 2.89 µM and the TGI [9] was 10.5 µM. The GI50 [10] was 2.34 µM, the TGI [10] was 5.82 µM and the GI50 [11] was 1.84 µM. For the same molecule, the TGI [11] was 3.99 µM, the GI50 [12] was 5.32 µM and the TGI [12] was 29.8 µM. It also gave a GI50 [13] of 2.49 µM, a TGI [13] of 7.48 µM and a GI50 [14] of 3.67 µM. The TGI [14] was 19.8 µM, the GI50 [15] was 3.55 µM and the TGI [15] was 13.8 µM. The GI50 [16] was 2.91 µM, the TGI [16] was 8.31 µM and the GI50 [17] was 2.79 µM. It also gave a TGI [17] of 9.02 µM, a GI50 [18] of 2 µM and a TGI [18] of 7.65 µM. For the same molecule, the GI50 [19] was 1.97 µM, the TGI [19] was 4 µM and the GI50 [20] was 3.97 µM. The TGI [20] was 20.8 µM, the GI50 [21] was 2.58 µM and the TGI [21] was 9.45 µM. The GI50 [22] was 3.39 µM, the TGI [22] was 13.7 µM and the GI50 [23] was 4.59 µM. For the same molecule, the TGI [23] was 17.4 µM, the GI50 [24] was 1.97 µM and the TGI [24] was 4.38 µM. For the same molecule, the GI50 [25] was 2.02 µM, the TGI [25] was 4.67 µM and the GI50 [26] was 2.19 µM. It also gave a TGI [26] of 5.18 µM, a GI50 [27] of 1.8 µM and a TGI [27] of 3.8 µM. For the same molecule, the GI50 [28] was 2.01 µM, the TGI [28] was 6.24 µM and the GI50 [29] was 46.8 µM. For the same molecule, the TGI [29] was > 100 µM, the GI50 [30] was 2.44 µM and the TGI [30] was 6.14 µM. It also gave a GI50 [31] of 2.96 µM, a TGI [31] of 10 µM and a GI50 [32] of 13.7 µM. It also gave a TGI [32] of 29.7 µM, a GI50 [33] of 1.72 µM and a TGI [33] of 3.79 µM. For the same molecule, the GI50 [34] was 2.05 µM, the TGI [34] was 4.8 µM and the GI50 [35] was 2.69 µM. The TGI [35] was 6.27 µM, the GI50 [36] was 5.31 µM and the TGI [36] was 18.1 µM. For the same molecule, the GI50 [37] was > 100 µM, the TGI [37] was > 100 µM and the GI50 [38] was 2.63 µM. For the same molecule, the TGI [38] was 8.58 µM, the GI50 [39] was 12.1 µM and the TGI [39] was 25.9 µM. It also gave a GI50 [40] of 4.65 µM, a TGI [40] of 32.9 µM and a GI50 [41] of 2.76 µM. For the same molecule, the TGI [41] was 10.8 µM, the GI50 [42] was 2.47 µM and the TGI [42] was 8.09 µM. It also gave a GI50 [43] of 3.06 µM, a TGI [43] of 12 µM and a GI50 [44] of 2.23 µM. For the same molecule, the TGI [44] was 5.45 µM, the GI50 [45] was 2.97 µM and the TGI [45] was 8.33 µM. The GI50 [46] was 3.22 µM, the TGI [46] was 10.3 µM and the GI50 [47] was 1.96 µM. For the same molecule, the TGI [47] was 4.7 µM, the GI50 [48] was 2.12 µM and the TGI [48] was 5.07 µM. For the same molecule, the GI50 [49] was 1.77 µM, the TGI [49] was 3.77 µM and the GI50 [50] was 3.29 µM. For the same molecule, the TGI [50] was 18.7 µM, the GI50 [51] was 4.73 µM and the TGI [51] was 16.7 µM. It also gave a GI50 [52] of 3.46 µM, a TGI [52] of 17.9 µM and a GI50 [53] of 10.6 µM. The TGI [53] was 25.2 µM, the GI50 [54] was 39 µM and the TGI [54] was > 100 µM. It also gave a GI50 [55] of 10.6 µM, a TGI [55] of 28.6 µM and a GI50 [56] of 2.49 µM. It also gave a TGI [56] of 8.06 µM, a GI50 [57] of 3.28 µM and a TGI [57] of 11.8 µM. For the same molecule, the GI50 [58] was 2.1 µM, the TGI [58] was 4.84 µM and the GI50 [59] was 20.8 µM. It also gave a TGI [59] of 71.6 µM.

Reference: PubChem BioAssay (NCI)
